# Test results: PubChem BioAssay AID248 (DTP/NCI, 2004)
# Several values for one entry are separate records, joined by “and”; a condition that tells them apart may be missing. Equal values may be shown once. Toxic doses and inconclusive results are not listed.
# Tested on: L1210 leukemia ip in BDF1 mice, survival T/C
# Assay: NCI In Vivo Anticancer Drug Screen. Data for tumor model L1210 Leukemia (intraperitoneal) in B6D2F1 (BDF1) mice
# Conditions: endpoint: mean survival time, higher = longer survival
# Outline: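 Tumor was transplanted into mice, which were then dosed with test compound or vehicle alone. Survival was recorded for each group, and the treated figure was expressed relative to the control figure.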
# [1] = dose: 100.0 mg/kg/injection, schedule: Q01DX009 (ip), vehicle: Klucel (hydroxypropylcellulose) (HPC)
# [2] = dose: 100.0 mg/kg/injection, schedule: Q04DX003 (ip), vehicle: Klucel (hydroxypropylcellulose) (HPC)
# [3] = dose: 200.0 mg/kg/injection, schedule: Q01DX009 (ip), vehicle: Klucel (hydroxypropylcellulose) (HPC)
# [4] = dose: 200.0 mg/kg/injection, schedule: Q04DX003 (ip), vehicle: Klucel (hydroxypropylcellulose) (HPC)
# [5] = dose: 400.0 mg/kg/injection, schedule: Q01DX009 (ip), vehicle: Klucel (hydroxypropylcellulose) (HPC)
# [6] = dose: 400.0 mg/kg/injection, schedule: Q04DX003 (ip), vehicle: Klucel (hydroxypropylcellulose) (HPC)
# [7] = dose: 100.0 mg/kg/injection, schedule: Q01DX001 (ip), vehicle: carboxymethylcellulose (CMC)
# [8] = dose: 200.0 mg/kg/injection, schedule: Q01DX001 (ip), vehicle: carboxymethylcellulose (CMC)
# [9] = dose: 400.0 mg/kg/injection, schedule: Q01DX001 (ip), vehicle: carboxymethylcellulose (CMC)
# [10] = dose: 100.0 mg/kg/injection, schedule: Q01DX001 (ip), vehicle: saline
# [11] = dose: 200.0 mg/kg/injection, schedule: Q01DX001 (ip), vehicle: saline
# [12] = dose: 400.0 mg/kg/injection, schedule: Q01DX001 (ip), vehicle: saline
smiles,measurement,setting,value
Cc1cc(C)c(NC(=O)N(CCCl)N=O)c(C)c1,T/C,"dose: 11.25 mg/kg/injection, schedule: Q01DX001 (ip), vehicle: other",155 % of control
same,T/C,"dose: 15.0 mg/kg/injection, schedule: Q01DX001 (ip), vehicle: other",150 % of control
same,T/C,"dose: 16.0 mg/kg/injection, schedule: Q01DX001 (ip), vehicle: other",174 % of control
same,T/C,"dose: 20.0 mg/kg/injection, schedule: Q01DX001 (ip), vehicle: other",203 % of control
same,T/C,"dose: 22.5 mg/kg/injection, schedule: Q01DX001 (ip), vehicle: other",234 % of control
same,T/C,"dose: 25.0 mg/kg/injection, schedule: Q01DX001 (ip), vehicle: other",166 % of control
same,T/C,"dose: 30.0 mg/kg/injection, schedule: Q01DX001 (ip), vehicle: other",191 % of control
same,T/C,"dose: 31.0 mg/kg/injection, schedule: Q01DX001 (ip), vehicle: other",165 % of control
same,T/C,"dose: 38.0 mg/kg/injection, schedule: Q01DX001 (ip), vehicle: other",201 % of control
same,T/C,"dose: 45.0 mg/kg/injection, schedule: Q01DX001 (ip), vehicle: other",252 % of control and 322 % of control
same,T/C,"dose: 57.0 mg/kg/injection, schedule: Q01DX001 (ip), vehicle: other",262 % of control
same,T/C,"dose: 62.0 mg/kg/injection, schedule: Q01DX001 (ip), vehicle: other",217 % of control
same,T/C,"dose: 86.0 mg/kg/injection, schedule: Q01DX001 (ip), vehicle: other",227 % of control
same,T/C,"dose: 90.0 mg/kg/injection, schedule: Q01DX001 (ip), vehicle: other",100 % of control
CC(C)C1(Cc2ccccc2)C(=O)NC(=S)NC1=O,T/C,"dose: 75.0 mg/kg/injection, schedule: Q01DX001 (ip), vehicle: saline",95 % of control
same,T/C,"dose: 150.0 mg/kg/injection, schedule: Q01DX001 (ip), vehicle: saline",93 % of control
CC(=O)Oc1cc(O)c2c(c1)OC(C)(C)CC2=O,T/C,[1],98 % of control
same,T/C,[2],93 % of control
same,T/C,[3],98 % of control
same,T/C,[4],100 % of control
same,T/C,[5],96 % of control
same,T/C,[6],97 % of control
Cc1nc(N)[nH]c(=O)c1/C=C\C(=O)c1ccccc1,T/C,"dose: 30.0 mg/kg/injection, schedule: Q01DX Z (ip), vehicle: carboxymethylcellulose (CMC)",96 % of control
same,T/C,"dose: 60.0 mg/kg/injection, schedule: Q01DX Z (ip), vehicle: carboxymethylcellulose (CMC)",96 % of control
same,T/C,[7],95 % of control
same,T/C,"dose: 120.0 mg/kg/injection, schedule: Q01DX Z (ip), vehicle: carboxymethylcellulose (CMC)",87 % of control
same,T/C,[8],89 % of control
same,T/C,"dose: 240.0 mg/kg/injection, schedule: Q01DX Z (ip), vehicle: carboxymethylcellulose (CMC)",90 % of control
same,T/C,[9],93 % of control
O=S(=O)(C/C=C/COc1ccccc1)c1ccc2ccccc2c1,T/C,"dose: 75.0 mg/kg/injection, schedule: Q01DX001 (ip), vehicle: Klucel (hydroxypropylcellulose) (HPC)",104 % of control
same,T/C,"dose: 75.0 mg/kg/injection, schedule: Q01DX009 (ip), vehicle: Klucel (hydroxypropylcellulose) (HPC)",102 % of control
same,T/C,"dose: 150.0 mg/kg/injection, schedule: Q01DX001 (ip), vehicle: Klucel (hydroxypropylcellulose) (HPC)",94 % of control
same,T/C,"dose: 150.0 mg/kg/injection, schedule: Q01DX009 (ip), vehicle: Klucel (hydroxypropylcellulose) (HPC)",96 % of control
same,T/C,"dose: 300.0 mg/kg/injection, schedule: Q01DX001 (ip), vehicle: Klucel (hydroxypropylcellulose) (HPC)",113 % of control
same,T/C,"dose: 300.0 mg/kg/injection, schedule: Q01DX009 (ip), vehicle: Klucel (hydroxypropylcellulose) (HPC)",98 % of control
O=c1oc2ccc(Cl)cc2c2ccccc12,T/C,[2],98 % of control
same,T/C,[4],100 % of control
same,T/C,[6],104 % of control
CCCCC(=O)N/N=C\c1ccc2c(c1)OCO2,T/C,[10],94 % of control
same,T/C,[11],105 % of control
same,T/C,[12],91 % of control
Cc1c(N)nc(N)nc1C(=O)O,T/C,"dose: 25.0 mg/kg/injection, schedule: Q01DX001 (ip), vehicle: Klucel (hydroxypropylcellulose) (HPC)",108 % of control
same,T/C,"dose: 50.0 mg/kg/injection, schedule: Q01DX001 (ip), vehicle: Klucel (hydroxypropylcellulose) (HPC)",93 % of control
same,T/C,"dose: 100.0 mg/kg/injection, schedule: Q01DX001 (ip), vehicle: Klucel (hydroxypropylcellulose) (HPC)",105 % of control
CC(=O)c1cccc(NC(=O)Nc2ccc(Nc3ccccc3)cc2)c1,T/C,"dose: 100.0 mg/kg/injection, schedule: Q01DX009 (ip), vehicle: other",103 % of control
same,T/C,"dose: 200.0 mg/kg/injection, schedule: Q01DX009 (ip), vehicle: other",101 % of control
same,T/C,"dose: 400.0 mg/kg/injection, schedule: Q01DX009 (ip), vehicle: other",93 % of control
Cc1cc(Br)nc2ccccc12,T/C,[10],92 % of control
same,T/C,[11],89 % of control
same,T/C,[12],97 % of control
CC12CCC(=O)C=C1CCC1C2CCC2(C)C1CCC2(O)C#CCN(CCCl)CCCl (configuration not stated),T/C,"dose: 100.0 mg/kg/injection, schedule: Q01DX001 (sc), vehicle: steriod suspending solution",96 % of control
same,T/C,"dose: 200.0 mg/kg/injection, schedule: Q01DX001 (sc), vehicle: steriod suspending solution",104 % of control
same,T/C,"dose: 400.0 mg/kg/injection, schedule: Q01DX001 (sc), vehicle: steriod suspending solution",98 % of control
COC1=C(Cl)C(OC)(OC)C(Cl)=C1Cl,T/C,"dose: 75.0 mg/kg/injection, schedule: Q01DX001 (ip), vehicle: carboxymethylcellulose (CMC)",107 % of control
same,T/C,"dose: 150.0 mg/kg/injection, schedule: Q01DX001 (ip), vehicle: carboxymethylcellulose (CMC)",102 % of control
same,T/C,"dose: 300.0 mg/kg/injection, schedule: Q01DX001 (ip), vehicle: carboxymethylcellulose (CMC)",104 % of control
CCOC(=O)NP(=O)(NC1CCCCC1)NC1CCCCC1,T/C,"dose: 50.0 mg/kg/injection, schedule: Q01DX001 (ip), vehicle: alcohol",92 % of control
same,T/C,"dose: 100.0 mg/kg/injection, schedule: Q01DX001 (ip), vehicle: alcohol",96 % of control
same,T/C,"dose: 200.0 mg/kg/injection, schedule: Q01DX001 (ip), vehicle: alcohol",90 % of control
CCCCCCCCCCOc1ccc(C=Nc2ccc(CC)cc2)cc1,T/C,[1],103 % of control
same,T/C,[3],90 % of control
same,T/C,[5],93 % of control
O=C(O)c1ccc(S(=O)(=O)O)cc1,T/C,"dose: 100.0 mg/kg/injection, schedule: Q01DX009 (ip), vehicle: saline",100 % of control
same,T/C,"dose: 200.0 mg/kg/injection, schedule: Q01DX009 (ip), vehicle: saline",97 % of control
same,T/C,"dose: 400.0 mg/kg/injection, schedule: Q01DX009 (ip), vehicle: saline",101 % of control
Cn1cnc([N+](=O)[O-])c1[Se]c1ncnc2c1ncn2C1OC(CO)C(O)C1O (configuration not stated),T/C,"dose: 12.5 mg/kg/injection, schedule: Q01DX005 (ip), vehicle: saline",104 % of control
same,T/C,"dose: 25.0 mg/kg/injection, schedule: Q01DX005 (ip), vehicle: saline",98 % of control
Nc1ncc(C=O)c(N)n1,T/C,"dose: 6.25 mg/kg/injection, schedule: Q01DX009 (ip), vehicle: Klucel (hydroxypropylcellulose) (HPC)",113 % of control
same,T/C,"dose: 12.5 mg/kg/injection, schedule: Q01DX009 (ip), vehicle: Klucel (hydroxypropylcellulose) (HPC)",100 % of control
NC1=NC(=O)NC1(c1ccccc1)c1ccccc1,T/C,"dose: 50.0 mg/kg/injection, schedule: Q01DX001 (ip), vehicle: carboxymethylcellulose (CMC)",94 % of control
same,T/C,[7],100 % of control
same,T/C,[8],89 % of control
same,T/C,[9],116 % of control
C[C@@H]1CC[C@@]2(NC1)O[C@H]1C[C@H]3[C@@H]4CC=C5C[C@@H](O)CC[C@]5(C)[C@H]4CC[C@]3(C)[C@H]1[C@@H]2C,T/C,"dose: 5.0 mg/kg/injection, schedule: Q01DX Z (sc), vehicle: steriod suspending solution",91 % of control
same,T/C,"dose: 10.0 mg/kg/injection, schedule: Q01DX Z (sc), vehicle: steriod suspending solution",100 % of control
same,T/C,"dose: 20.0 mg/kg/injection, schedule: Q01DX Z (sc), vehicle: steriod suspending solution",96 % of control
same,T/C,"dose: 40.0 mg/kg/injection, schedule: Q01DX Z (sc), vehicle: steriod suspending solution",98 % of control
same,T/C,"dose: 50.0 mg/kg/injection, schedule: Q01DX009 (ip), vehicle: saline sonified",95 % of control
same,T/C,"dose: 100.0 mg/kg/injection, schedule: Q01DX009 (ip), vehicle: saline sonified",94 % of control
same,T/C,[2],94 % of control
same,T/C,"dose: 200.0 mg/kg/injection, schedule: Q01DX009 (ip), vehicle: saline sonified",90 % of control
same,T/C,[4],99 % of control
